Patent publication US20230390251A1, “METHODS OF TREATING RIBONUCLEOTIDE REDUCTASE-RELATED DISEASES WITH A RIBONUCLEOTIDE REDUCTASE INHIBITOR” (TAIHO PHARMACEUTICAL CO., LTD., priority 2020, published 2023)

Legend:
[1] = tested on: 11 sarcoma cell lines listed in Table 1; assay: Cell proliferation assay (CellTiter-Glo) in 11 sarcoma cell lines, correlated with SLFN11 mRNA expression; type: cell-based; conditions: 100 micro mol/L Compound A, 3 days of exposure, Pearson's correlation (P<0.05)
Method: Cell proliferation assay was performed in accordance with conventional methods, available in Hasako. S., et al. Mol Cancer Ther 17, 1648-1658 (2018). Briefly, cells were plated and incubated for 1 day, followed by 3 days of exposure to the compound. After exposure to Compound A, viable cells were detected by using the CellTiter-Glo luminescent cell viability assay (Promega). The experiment was performed in triplicates.
Correlation analysis of SLFN11 expression and Compound A cytotoxicity was performed using Pearson's correlation coefficient (P<0.05) in JMP 13 software. The gene expression data of cell lines were available online CCLE (http://www.broadinstitute.org/ccle/home). Compound A cytotoxicity data from 11 cell lines in Table 1 were used for correlation analysis (data for correlation was not shown).
The correlation between SLFN11 mRNA expression and the relative growth percent of cells at 100 micro mol/L treatment by Compound A was analyzed in 11 sarcoma cell lines listed in Table 1.

[2] = tested on: Human acute myelocytic leukemia (AML) cell line MV-4-11 cells; assay: Anti-tumor effect (relative tumor volume) in nude mice implanted with MV-4-11 cells; type: in vivo; conditions: for effect of reducing tumor volume (RTV) compared to the Control Group: Day 15
Method: Anti-tumor Effect and body weight change in QOD Dosing Regimen Human acute myelocytic leukemia (AML) cell line MV-4-11 cells (American Type Culture Collection CRL-9591™) were implanted in the right thorax of male nude mice (CLEA Japan, Inc.). After implantation of the tumor, the major axis (mm) and minor axis (mm) of the tumor were measured, and tumor volume (TV) was calculated for each mouse. Then, the mice were assigned to the following groups, Control group (◯), Continuous Dosing Group (●: 100 mg/kg/day; ⋄: 150 mg/kg/day) and QOD Dosing Group (▴: 200 mg/kg/day; ♦: 300 mg/kg/day), so that the average TV of each group was equivalent. The day in which the grouping (n=5) was conducted was taken as Day 0.
5-chloro-2-(N-((1S,2R)-2-(6-fluoro-2,3-dimethylphenyl)-1-(5-oxo-4,5-dihydro-1,3,4-oxadiazol-2-yl)propyl)sulfamoyl)benzamide (Compound A) was suspended in 5 mg/mL hypromellose solution to provide appropriate test samples for 100 mg/kg, 150 mg/kg. 200 mg/kg, and 300 mg/kg dosing regimen. Animals of the Control group were not treated.
To mice in the Continuous Dosing Group, 100 mg/kg/day or 150 mg/kg/day of Compound A was orally administered once daily from Day 1 to Day 14. The total dosage for mice in the Continuous Dosing Group administered 100 mg/kg/day (Group C-1) was 1400 mg/kg, and the total dosage for mice in the Continuous Dosing Group administered 150 mg/kg/day (Group C-2) was 2100 mg/kg.
To mice in the QOD Dosing Group, 200 mg/kg/day or 300 mg/kg/day of Compound A was orally administered once every other day for two weeks (Days 1, 3, 5, 7, 9, 11 and 13). The total dosage for mice in the QOD Dosing Group administered 200 mg/kg/day (Group QOD-1) was 1400 mg/kg, and the total dosage for mice in the QOD Dosing Group administered 300 mg/kg/day (Group QOD-2) was 2100 mg/kg.
On Days 4, 8, 11 and 15, using the following formula: TV (mm^3)=(major axis×minor axis^2)/2, relative tumor volume (RTV) was calculated as an index of anti-tumor effect during the dosing period for each group (FIG. 1).
Similar to Example 1, anti-tumor effect and body weight change were studied in mice harboring MV-4-11 cells among the following five groups: Control group (◯), Continuous Dosing Group (●: 100 mg/kg/day; ⋄: 150 mg/kg/day) and QW Dosing Group (▪: 700 mg/kg/day; x: 1050 mg/kg/day).
To mice in the QW Dosing Group, 700 mg/kg/day or 1050 mg/kg/day of Compound A was orally administered once per week for two weeks (Days 1 and 8). The total dosage for mice in the QW Dosing Group administered 700 mg/kg/day (Group QW-1) was 1400 mg/kg, and the total dosage for mice in the QW Dosing Group administered 1050 mg/kg/day (Group QW-2) was 2100 mg/kg.
(§1) Similar to Example 1, anti-tumor effect and body weight change were studied in mice harboring MV-4-11 cells among the following five groups: Control group (◯), Continuous Dosing Group (●: 100 mg/kg/day; ⋄: 150 mg/kg/day) and 3QW Dosing Group 1 (▴: 233 mg/kg/day; ♦: 350 mg/kg/day).
To mice in the 3QW Dosing Group 1, 233 mg/kg/day or 350 mg/kg/day of Compound A was orally administered three days consecutively per week for two weeks (Days 1-3 and 8-10). The total dosage for mice in the 3QW Dosing Group 1 administered 233 mg/kg/day (Group 3QW1-1) was 1400 mg/kg, and the total dosage for mice in the 3QW Dosing Group 1 administered 350 mg/kg/day (Group 3QW1-2) was 2100 mg/kg.
as §1, with “Anti-tumor Effect and body weight change in 3QW Dosing Regimen 2 Similar” for “Similar”, “group (0),” for “group (◯),”, “Group 2” for “Group 1”
To mice in the 3QW Dosing Group 2, 233 mg/kg/day or 350 mg/kg/day of Compound A was orally administered every other day three times per week for two weeks (Days 1, 3, 5, 8, 10 and 12). […]

Q: What does the source list for `Cc1ccc(F)c([C@@H](C)[C@H](NS(=O)(=O)c2ccc(Cl)cc2C(N)=O)c2n[nH]c(=O)o2)c1C` [Compound A, 5-chloro-2-(N-((1S,2R)-2-(6-fluoro-2,3-dimethylphenyl)-1-(5-oxo-4,5-dihydro-1,3,4-oxadiazol-2-yl)propyl)sulfamoyl)benzamide]?
A: correlation between SLFN11 mRNA expression and relative cell growth (%) [1]: a significant correlation; effect of reducing tumor volume, Group 3QW1-2 compared with Group C-2 ([2]; 3QW (consecutive) 350 mg/kg/day vs continuous 150 mg/kg/day, total dosage 2100 mg/kg, not statistically significant): similar; effect of reducing tumor volume, Group 3QW2-1 compared with Group C-1 ([2]; 3QW (every other day) 233 mg/kg/day vs continuous 100 mg/kg/day, total dosage 1400 mg/kg, t-test P<0.05): higher than Group C-1; effect of reducing tumor volume, Group 3QW2-2 compared with Group C-2 ([2]; 3QW (every other day) 350 mg/kg/day vs continuous 150 mg/kg/day, total dosage 2100 mg/kg, not statistically significant): similar; effect of reducing tumor volume (RTV) compared to the Control Group ([2]; 3QW Dosing Group 1, 233 or 350 mg/kg/day orally Days 1-3 and 8-10): showed the effect of reducing tumor volume compared to the Control Group; effect of reducing tumor volume (RTV) compared to the Control Group ([2]; 3QW Dosing Group 2, 233 or 350 mg/kg/day orally Days 1, 3, 5, 8, 10 and 12): showed the effect of reducing tumor volume compared to the Control Group; effect of reducing tumor volume, Group 5QW2-2 compared with Group C-2 ([2]; 5QW (2 on/1 off/3 on/1 off) 210 mg/kg/day vs continuous 150 mg/kg/day, total dosage 2100 mg/kg, t-test p<0.05): higher than Group C-2 with a statistically significant difference; effect of reducing tumor volume, Group 5QW1-2 compared with Group C-2 ([2]; 5QW (consecutive) 210 mg/kg/day vs continuous 150 mg/kg/day, total dosage 2100 mg/kg, not statistically significant): similar; effect of reducing tumor volume (RTV) compared to the Control Group ([2]; 5QW Dosing Group 1, 140 or 210 mg/kg/day orally Days 1-5 and 8-12): showed the effect of reducing tumor volume compared to the Control Group; effect of reducing tumor volume (RTV) compared to the Control Group ([2]; 5QW Dosing Group 2, 140 or 210 mg/kg/day orally Days 1-2, 4-6, 8-9 and 11-13): showed the effect of reducing tumor volume compared to the Control Group; effect of reducing tumor volume (RTV) compared to the Control Group ([2]; Continuous Dosing Group, 100 or 150 mg/kg/day orally once daily Day 1 to Day 14): showed the effect of reducing tumor volume compared to the Control Group; effect of reducing tumor volume, Group QOD-1 compared with Group C-1 ([2]; QOD 200 mg/kg/day vs continuous 100 mg/kg/day, total dosage 1400 mg/kg, t-test p<0.05): higher than Group C-1; effect of reducing tumor volume, Group QOD-2 compared with Group C-2 ([2]; QOD 300 mg/kg/day vs continuous 150 mg/kg/day, total dosage 2100 mg/kg, not statistically significant): similar; effect of reducing tumor volume (RTV) compared to the Control Group ([2]; QOD Dosing Group, 200 or 300 mg/kg/day orally Days 1, 3, 5, 7, 9, 11 and 13): showed the effect of reducing tumor volume compared to the Control Group; effect of reducing tumor volume, Group QW-2 compared with Group C-2 ([2]; QW 1050 mg/kg/day vs continuous 150 mg/kg/day, total dosage 2100 mg/kg, not statistically significant): similar; effect of reducing tumor volume (RTV) compared to the Control Group ([2]; QW Dosing Group, 700 or 1050 mg/kg/day orally Days 1 and 8): showed the effect of reducing tumor volume compared to the Control Group
